Tests used:
PAO1 producing IMP-13 = test: MIC and checkerboard by broth microdilution, recombinant strain; format: cell-based, Pseudomonas aeruginosa; conditions: antibiotic alone
Excerpt: (§1) Pseudomonas aeruginosa isolate, PAO1, was used alongside its isogenic counterpart, PAO1 TnoprD, which lacks a functional OprD porin (Held et al. [2012]). β-lactamases, blaIMP-1, blaIMP-10, blaIMP-13, blaNDM-1, blaSPM-1, blaVIM-1, blaVIM-2, and blaKPC-2, had previously been cloned into the pUCP24 shuttle vector (Bouvier et al. [2025]), and were transformed by electroporation into both PAO1 and PAO1 TnoprD.
(§2) . MICs of DMSA, CAZ, FEP and checkerboards for the combinations, CAZ/DMSA and FEP/DMSA, were performed for all clinical isolates. All susceptibility testing results were interpreted according to CLSI guidelines (CLSI [2023]). The fractional inhibitory concentration index (FICI) was calculated and interpreted as follows: the MIC of drug A in combination/the MIC of drug A alone + the MIC of drug B in combination/the MIC drug B alone. FICI ≤ 0.5 = synergy; 0.5 < FICI ≤ 1 = additive; FICI 1 < FICI < 2 = indifference, and FICI ≥ 2 = antagonism. All susceptibility testing/checkerboard assays were performed in triplicate.

[1] = system: PAO1 TnoprD producing IMP-13; test: as above; format: cell-based, Pseudomonas aeruginosa; conditions: IMP-13 TnoprD; antibiotic alone
Excerpt: as §1, §2

[2] = system: PAO1 TnoprD producing SPM-1; test: as above; format: cell-based, Pseudomonas aeruginosa; conditions: SPM-1 TnoprD; antibiotic alone
Excerpt: as §1, §2

[3] = system: PAO1 TnoprD producing IMP-10; test: as above; format: cell-based, Pseudomonas aeruginosa; conditions: IMP-10 TnoprD; antibiotic alone
Excerpt: as §1, §2

PAO1 producing SPM-1 = test: as above; format: cell-based, Pseudomonas aeruginosa; conditions: antibiotic alone
Excerpt: as §1, §2

PAO1 producing IMP-1 = test: as above; format: cell-based, Pseudomonas aeruginosa; conditions: antibiotic alone
Excerpt: as §1, §2

PAO1 producing VIM-2 = test: as above; format: cell-based, Pseudomonas aeruginosa; conditions: antibiotic alone
Excerpt: as §1, §2

PAO1 producing VIM-1 = test: as above; format: cell-based, Pseudomonas aeruginosa; conditions: antibiotic alone
Excerpt: as §1, §2

[4] = system: PAO1 TnoprD producing VIM-2; test: as above; format: cell-based, Pseudomonas aeruginosa; conditions: VIM-2 TnoprD; antibiotic alone
Excerpt: as §1, §2

[5] = system: PAO1 TnoprD producing VIM-1; test: as above; format: cell-based, Pseudomonas aeruginosa; conditions: VIM-1 TnoprD; antibiotic alone
Protocol: (§3) The fractional inhibitory concentration index (FICI) was calculated and interpreted as follows: the MIC of drug A in combination/the MIC of drug A alone + the MIC of drug B in combination/the MIC drug B alone. FICI ≤ 0.5 = synergy; 0.5 < FICI ≤ 1 = additive; FICI 1 < FICI < 2 = indifference, and FICI ≥ 2 = antagonism. All susceptibility testing/checkerboard assays were performed in triplicate.

[6] = system: PAO1 TnoprD producing IMP-1; test: as above; format: cell-based, Pseudomonas aeruginosa; conditions: IMP-1 TnoprD; antibiotic alone
Protocol: as §3

[7] = system: PAO1 TnoprD producing NDM-1; test: as above; format: cell-based, Pseudomonas aeruginosa; conditions: NDM-1 TnoprD; antibiotic alone
Protocol: as §3

PAO1 producing NDM-1 = test: as above; format: cell-based, Pseudomonas aeruginosa; conditions: antibiotic alone
Protocol: as §3

PAO1 producing IMP-10 = test: as above; format: cell-based, Pseudomonas aeruginosa; conditions: antibiotic alone
Protocol: as §3

[8] = system: MBL-producers in isogenic strains of P. aeruginosa; parameters: method as in Bouvier et al. 2025; conditions: ref Bouvier et al. 2025, cited from earlier work
MBL-producing E. coli = conditions: high concentrations, ref Cheminet et al. 2020, cited from earlier work
SPM-1 = SPM-1 (Pseudomonas aeruginosa, UniProt Q8G9Q0); test: IC50, inhibition of cephalothin hydrolysis by crude extract; conditions: SPM-1; 100 μM cephalothin, pH 7.0
Sequence of SPM-1 (Q8G9Q0 entry or part of it): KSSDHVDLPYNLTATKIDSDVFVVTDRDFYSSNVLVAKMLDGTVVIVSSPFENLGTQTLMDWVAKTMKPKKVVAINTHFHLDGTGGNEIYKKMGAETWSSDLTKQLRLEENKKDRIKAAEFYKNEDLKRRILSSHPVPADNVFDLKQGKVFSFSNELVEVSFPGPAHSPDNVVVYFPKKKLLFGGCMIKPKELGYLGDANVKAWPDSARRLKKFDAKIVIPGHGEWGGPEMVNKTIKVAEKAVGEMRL

IMP-13 = IMP-13 (Pseudomonas aeruginosa, UniProt Q7WYA8); test: as above; conditions: IMP-13; 100 μM cephalothin, pH 7.0
Sequence of IMP-13 (Q7WYA8 21-246): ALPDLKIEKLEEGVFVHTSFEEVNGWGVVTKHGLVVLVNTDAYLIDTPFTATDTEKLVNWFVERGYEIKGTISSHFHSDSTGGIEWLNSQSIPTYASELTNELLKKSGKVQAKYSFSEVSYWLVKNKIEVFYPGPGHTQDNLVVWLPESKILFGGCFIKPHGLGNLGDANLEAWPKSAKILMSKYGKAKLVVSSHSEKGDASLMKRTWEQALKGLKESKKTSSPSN

[9] = parameters: method as in van Eijkeren et al. 2016; conditions: 30 mg/kg dose; ref van Eijkeren et al. 2016; cited from earlier work
VIM-2 = VIM-2 (Escherichia coli, UniProt Q5U7L7); test: IC50, inhibition of cephalothin hydrolysis by crude extract; conditions: VIM-2; 100 μM cephalothin, pH 7.0
IMP-10 = IMP-10 (Serratia marcescens, UniProt P52699, V49F); test: as above; conditions: IMP-10; 100 μM cephalothin, pH 7.0
Sequence of IMP-10 (P52699 19-246 V49F): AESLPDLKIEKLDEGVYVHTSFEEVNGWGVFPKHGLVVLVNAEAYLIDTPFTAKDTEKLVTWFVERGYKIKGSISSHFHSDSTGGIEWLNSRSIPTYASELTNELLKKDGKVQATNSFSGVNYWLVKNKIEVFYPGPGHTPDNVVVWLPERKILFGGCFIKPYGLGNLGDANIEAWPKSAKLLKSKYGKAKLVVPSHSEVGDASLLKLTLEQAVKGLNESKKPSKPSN

VIM-1 = VIM-1 (Pseudomonas aeruginosa, UniProt A0A0F7KYQ8); test: as above; conditions: VIM-1; 100 μM cephalothin, pH 7.0
NDM-1 = NDM-1 (Klebsiella pneumoniae, UniProt C7C422); test: as above; conditions: 100 μM cephalothin, pH 7.0
Sequence of NDM-1 (C7C422 29-270 limits assumed): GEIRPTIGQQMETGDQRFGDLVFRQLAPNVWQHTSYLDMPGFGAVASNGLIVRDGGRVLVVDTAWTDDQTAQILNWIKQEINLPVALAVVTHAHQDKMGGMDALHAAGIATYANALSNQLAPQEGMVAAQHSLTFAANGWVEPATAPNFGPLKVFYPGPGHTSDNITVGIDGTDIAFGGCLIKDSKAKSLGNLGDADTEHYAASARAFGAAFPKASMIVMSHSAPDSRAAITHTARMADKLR

`CC(C)(O/N=C(\C(=O)N[C@@H]1C(=O)N2C(C(=O)[O-])=C(C[n+]3ccccc3)CS[C@H]12)c1csc(N)n1)C(=O)O` [CAZ, ceftazidime] gave an MIC (PAO1 producing IMP-13) of 64 µg/mL, an MIC [1] of 64 µg/mL and an MIC [2] of 512 µg/mL. It also gave an MIC [3] of 2050 µg/mL, an MIC (PAO1 producing SPM-1) of 512 µg/mL and an MIC (PAO1 producing IMP-1) of 1020 µg/mL. It also gave an MIC (PAO1 producing VIM-2) of 8 µg/mL, an MIC (PAO1 producing VIM-1) of 2050 µg/mL and an MIC [4] of 8 µg/mL. The MIC [5] was 2050 µg/mL, the MIC [6] was 1020 µg/mL and the MIC [7] was 4100 µg/mL. It also gave an MIC (PAO1 producing NDM-1) of 4100 µg/mL and an MIC (PAO1 producing IMP-10) of 2050 µg/mL.
For `O=C(O)[C@@H](S)[C@@H](S)C(=O)O` [DMSA, meso-dimercaptosuccinic acid], the “effect on carbapenem (IPM and MEM) MICs” value ([8]; DMSA at 3 mM) is given as “significantly reduce”, the “type of interaction with carbapenems” value [8] is given as “additive” and the “efficacy in mouse peritonitis model” value (MBL-producing E. coli; MBL-producing E. coli) is given as “effective”. The “tolerability in mouse peritonitis model” value (MBL-producing E. coli) was “well-tolerated”, the IC50 (SPM-1) was > 1000 µM and the IC50 (IMP-13) was 350 µM. The tolerability [9] was “well tolerated”, the IC50 (VIM-2) was > 1000 µM and the IC50 (IMP-10) was 50 µM. The IC50 (VIM-1) was > 1000 µM and the IC50 (NDM-1) was > 1000 µM.

Reference: publication PMC12147714 (FEMS Microbiology Letters, 2025)
